From patent publication US20140303229A1, “NOVEL SKIN MOISTURIZING COMPOSITIONS” (priority 2007, published 2014)

Tested on: skin
Assay: 14-day cumulative irritation potential study (predictive occlusive patch test)
From the text: Occlusive patches with 100 micro liters of test product were applied to the skin daily for 14 days. Patches with sodium lauryl sulfate, 1.0% was used as a positive control while white petrolatum was used as a negative control.

| Compound | Classification (irritation classification according to Berger and Bowman) (based on standardized cumulative irritation scores, 14 days, listed as Sodium lauryl sulfate 1.0%, sulfate) | Classification (irritation classification according to Berger and Bowman) (based on standardized cumulative irritation scores, 14 days, sulfate) | Standardized Cumulative Score (cumulative irritation score) (occlusive patches, 100 micro liters, daily for 14 days) | Category (irritation classification of Berger and Bowman) (in vivo) | Classification (irritation classification according to Berger and Bowman) (in vivo) |
| --- | --- | --- | --- | --- | --- |
| CCCCCCCCCCCCOS(=O)(=O)[O-].[Na+] [Sodium lauryl sulfate, 1.0%, Sodium lauryl sulfate] | possibly mild | Possibly mild in | 595.4 | – | – |
| White Petrolatum | – | – | – | I | Mild material - |
